# According to patent publication US20230302032A1, “ANTIBACTERIAL COMPOSITIONS AND METHODS FOR FABRICATING THEREOF” (Harrow IP LLC, priority 2020, published 2023):
# Read-outs that look alike come from different tables or passages of the source.
# How the values were obtained:
# [1] = HPLC potency and stability of stored antibiotic solutions; details: for Stability of the composition (assay %): composition of Example 2 (with L-glycine);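 on all read-outs here: stored antibiotic compositions assayed by HPLC for remaining potency, USP acceptance requires at least 90% of nominal concentration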
# Method: The final product was tested chromatographically (HPLC) for potency and stability after being stored for 6 months. […] According to the USP rules, at least a 90% concentration is required for the product to be acceptable.
# The stability of this composition was then monitored for a period of 180 days.
molecule,measurement,setting,value
"NC[C@H]1O[C@H](O[C@H]2[C@H](O)[C@@H](O[C@H]3O[C@H](CO)[C@@H](O)[C@H](N)[C@H]3O)[C@H](N)C[C@@H]2N)[C@H](N)C[C@@H]1O [Tobramycin, (2S,3R,4S,5S,6R)-4-amino-2-{[(1S,2S,3R,4S,6R)-4,6-diamino-3-{[(2R,3R,5S,6R)-3-amino-6-(aminomethyl)-5-hydroxyoxan-2-yl]oxy}-2-hydroxycyclohexyl]oxy}-6-(hydroxymethyl)oxane-3,5-diol]",Stability of the composition (assay %),0 days,102.3%
same,Stability of the composition (assay %),30 days,106.9%
same,Stability of the composition (assay %),60 days,98.9%
same,Stability of the composition (assay %),90 days,97.6%
same,Stability of the composition (assay %),180 days,97.9%
same,storage stability alone,180 days,withstood the storage for 180 days very well
Vancomycin,"Stability result, % (HPLC potency)","[1]; Tobramycin-Vancomycin System, aqueous solution, 1.5 % tobramycin, 5% vancomycin, no lidocaine, stored at −4° C. in a dark place, Day 0",108%
same,"Stability result, % (HPLC potency)","[1]; Tobramycin-Vancomycin System, aqueous solution, 1.5 % tobramycin, 5% vancomycin, no lidocaine, stored at −4° C. in a dark place, Day 30",108%
same,"Stability result, % (HPLC potency)","[1]; Tobramycin-Vancomycin System, aqueous solution, 1.5 % tobramycin, 5% vancomycin, no lidocaine, stored at −4° C. in a dark place, Day 60",106%
same,"Stability result, % (HPLC potency)","[1]; Tobramycin-Vancomycin System, aqueous solution, 1.5 % tobramycin, 5% vancomycin, no lidocaine, stored at −4° C. in a dark place, Day 90",107%
same,"Stability result, % (HPLC potency)","[1]; Tobramycin-Vancomycin System, aqueous solution, 1.5 % tobramycin, 5% vancomycin, no lidocaine, stored at −4° C. in a dark place, Day 120",91%
same,"Stability result, % (HPLC potency)","[1]; Tobramycin-Vancomycin System, aqueous solution, 1.5 % tobramycin, 5% vancomycin, no lidocaine, stored at −4° C. in a dark place, Day 150",83%
same,"Stability result, % (HPLC potency)","[1]; Tobramycin-Vancomycin System, aqueous solution, 1.5 % tobramycin, 5% vancomycin, no lidocaine, stored at −4° C. in a dark place, Day 180",81%
same,"Stability result, % (HPLC potency)","[1]; Vancomycin alone, 5.0 % aqueous solution, stored in a dark place at room temperature, Day 0",113%
same,"Stability result, % (HPLC potency)","[1]; Vancomycin alone, 5.0 % aqueous solution, stored in a dark place at room temperature, Day 30",106%
same,"Stability result, % (HPLC potency)","[1]; Vancomycin alone, 5.0 % aqueous solution, stored in a dark place at room temperature, Day 60",111%
same,"Stability result, % (HPLC potency)","[1]; Vancomycin alone, 5.0 % aqueous solution, stored in a dark place at room temperature, Day 90",106%
same,concentration of vancomycin,"[1]; after 120 days storage, system having no lidocaine (Table 4)",≤ 91%
same,Stability of the composition (assay %),[1]; Day 0,104.9%
same,Stability of the composition (assay %),[1]; Day 30,104.0%
same,Stability of the composition (assay %),[1]; Day 60,99.1%
same,Stability of the composition (assay %),[1]; Day 90,99.8%
same,Stability of the composition (assay %),[1]; Day 180,100.5%
same,storage stability alone,"[1]; each antibiotic alone, 180 days (Tables 2 and 3)",withstood the storage for 180 days very well
same,concentration of vancomycin,"[1]; same storage times (120 days and after), lidocaine present in the composition (Table 1)",at least 108%
